Data from ChEMBL document CHEMBL5465560, “Selectivity Literature for EUbOPEN Chemogenomic Library” (2024).
Each block holds one molecule with its values, some of them ahead of it.

Tests used:
[1] = target: Protein kinase C theta type (Homo sapiens, UniProt Q04759); test: Selectivity interaction (KinomeScan (DiscoverX)) EUB0001049a PRKCQ; conditions: at 1 µM
[2] = target: T1, Interleukin-1 receptor-associated kinase 3 (Homo sapiens) (UniProt Q9Y616); test: Selectivity interaction (ActivX KiNativ screen (kinase selectivity in THP-1 cell lysates)) EUB0000639a IRAK3; assay type: subcellular; conditions: lysate, at 5 µM
T1 sequence (whole entry): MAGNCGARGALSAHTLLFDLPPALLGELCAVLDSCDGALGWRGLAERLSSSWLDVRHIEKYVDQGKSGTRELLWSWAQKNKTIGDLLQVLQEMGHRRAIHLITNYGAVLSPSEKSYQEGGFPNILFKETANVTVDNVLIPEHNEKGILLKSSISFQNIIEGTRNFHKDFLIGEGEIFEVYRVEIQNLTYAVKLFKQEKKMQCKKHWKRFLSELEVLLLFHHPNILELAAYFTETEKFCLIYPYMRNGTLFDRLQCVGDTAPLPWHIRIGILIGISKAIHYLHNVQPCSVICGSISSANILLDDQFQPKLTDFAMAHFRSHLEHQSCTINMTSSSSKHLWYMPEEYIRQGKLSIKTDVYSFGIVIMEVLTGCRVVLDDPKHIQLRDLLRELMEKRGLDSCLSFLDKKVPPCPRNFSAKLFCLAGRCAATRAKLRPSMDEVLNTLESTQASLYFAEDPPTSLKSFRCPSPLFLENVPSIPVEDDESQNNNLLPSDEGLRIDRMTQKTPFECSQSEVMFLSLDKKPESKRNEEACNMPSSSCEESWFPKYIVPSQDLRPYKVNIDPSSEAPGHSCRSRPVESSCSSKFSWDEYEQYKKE

[3] = target: T2, Serine/threonine-protein kinase 17A (Homo sapiens) (UniProt Q9UEE5); test: Selectivity interaction (Kinase panel (Invitrogen)) EUB0000639a STK17A; conditions: at 200 nM
T2 sequence (whole entry): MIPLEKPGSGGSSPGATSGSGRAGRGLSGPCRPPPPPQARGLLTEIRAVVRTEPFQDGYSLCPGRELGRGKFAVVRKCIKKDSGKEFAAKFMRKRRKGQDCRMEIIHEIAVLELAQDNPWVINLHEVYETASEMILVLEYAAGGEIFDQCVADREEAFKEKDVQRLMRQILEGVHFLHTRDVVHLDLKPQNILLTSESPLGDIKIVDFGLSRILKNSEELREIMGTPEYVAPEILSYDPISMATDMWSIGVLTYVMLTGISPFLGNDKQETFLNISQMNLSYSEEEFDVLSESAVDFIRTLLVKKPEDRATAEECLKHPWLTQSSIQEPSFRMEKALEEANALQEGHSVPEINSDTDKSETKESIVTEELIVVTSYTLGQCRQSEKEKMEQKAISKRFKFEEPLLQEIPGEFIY

[4] = target: High affinity nerve growth factor receptor (Homo sapiens, UniProt P04629); test: Selectivity interaction (Kinase panel (literature)) EUB0001199aCl NTRK1; conditions: at 1 µM
[5] = target: RAF proto-oncogene serine/threonine-protein kinase (Homo sapiens) (UniProt P04049); conditions: at 10 µM
[6] = target: T3, Non-receptor tyrosine-protein kinase TNK1 (Homo sapiens) (UniProt Q13470); test: Selectivity interaction (KinomeScan (DiscoverX)) EUB0000229b TNK1; conditions: at 10 µM
T3 sequence (whole entry): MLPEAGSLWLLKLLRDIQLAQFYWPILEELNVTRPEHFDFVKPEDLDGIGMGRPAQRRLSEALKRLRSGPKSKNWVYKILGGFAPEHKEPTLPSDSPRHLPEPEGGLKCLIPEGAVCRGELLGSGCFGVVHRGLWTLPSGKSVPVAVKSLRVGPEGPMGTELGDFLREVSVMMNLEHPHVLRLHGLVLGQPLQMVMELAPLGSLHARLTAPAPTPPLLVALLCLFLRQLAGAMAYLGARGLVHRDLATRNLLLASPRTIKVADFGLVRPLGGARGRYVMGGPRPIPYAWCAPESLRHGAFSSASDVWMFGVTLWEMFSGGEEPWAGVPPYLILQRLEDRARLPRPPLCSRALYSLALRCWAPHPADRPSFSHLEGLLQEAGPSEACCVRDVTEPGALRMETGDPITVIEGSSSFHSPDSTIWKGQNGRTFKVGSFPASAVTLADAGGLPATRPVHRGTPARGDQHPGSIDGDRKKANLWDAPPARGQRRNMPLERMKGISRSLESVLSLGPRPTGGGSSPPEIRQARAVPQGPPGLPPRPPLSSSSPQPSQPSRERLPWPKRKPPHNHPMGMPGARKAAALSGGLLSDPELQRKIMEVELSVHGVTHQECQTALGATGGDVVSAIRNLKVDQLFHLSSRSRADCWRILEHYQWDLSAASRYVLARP

[7] = target: T4, Homeodomain-interacting protein kinase 4 (Homo sapiens) (UniProt Q8NE63); test: Selectivity interaction (KinomeScan (DiscoverX)) EUB0000045b HIPK4
T4 sequence (whole entry): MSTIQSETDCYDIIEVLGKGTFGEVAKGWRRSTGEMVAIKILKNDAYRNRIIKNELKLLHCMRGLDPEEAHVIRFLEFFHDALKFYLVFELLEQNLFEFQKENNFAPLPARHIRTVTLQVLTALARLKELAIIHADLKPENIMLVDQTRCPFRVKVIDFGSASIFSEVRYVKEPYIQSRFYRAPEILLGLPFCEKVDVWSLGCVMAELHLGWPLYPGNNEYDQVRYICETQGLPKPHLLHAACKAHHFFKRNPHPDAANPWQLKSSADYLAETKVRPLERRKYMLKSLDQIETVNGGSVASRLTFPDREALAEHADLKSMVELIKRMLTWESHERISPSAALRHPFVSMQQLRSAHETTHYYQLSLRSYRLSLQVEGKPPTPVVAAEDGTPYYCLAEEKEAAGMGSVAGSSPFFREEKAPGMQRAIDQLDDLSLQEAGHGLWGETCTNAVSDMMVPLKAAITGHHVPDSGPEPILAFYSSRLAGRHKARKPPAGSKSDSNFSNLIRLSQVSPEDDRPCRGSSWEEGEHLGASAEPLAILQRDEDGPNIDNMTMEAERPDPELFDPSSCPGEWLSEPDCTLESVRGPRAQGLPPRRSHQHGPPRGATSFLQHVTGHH

[8] = tested on: Tyrosine-protein kinase ABL1 (Homo sapiens), P00519 [F317I]; test: Selectivity interaction (KinomeScan (DiscoverX)) EUB0000655a ABL1; conditions: at 10 µM
[9] = target: Cyclin-dependent kinase 2 (Homo sapiens, UniProt P24941); test: Selectivity interaction (ActivX KiNativ screen (ex vivo kinase selectivity in human PBMCs)) EUB0001619a CDK2; assay type: cell-based; conditions: PBMC, at 1 µM
[10] = target: T1, Interleukin-1 receptor-associated kinase 3 (Homo sapiens); test: Selectivity interaction (KinomeScan (DiscoverX)) EUB0000618a IRAK3; conditions: at 10 µM
[11] = target: D(2) dopamine receptor (Homo sapiens, UniProt P14416); test: Selectivity interaction (Panel of kinases, GPCRs, ion channels and transporters (enzymatic assay)) EUB0000223bCl DRD2
Chain of D(2) dopamine receptor (P14416 whole entry): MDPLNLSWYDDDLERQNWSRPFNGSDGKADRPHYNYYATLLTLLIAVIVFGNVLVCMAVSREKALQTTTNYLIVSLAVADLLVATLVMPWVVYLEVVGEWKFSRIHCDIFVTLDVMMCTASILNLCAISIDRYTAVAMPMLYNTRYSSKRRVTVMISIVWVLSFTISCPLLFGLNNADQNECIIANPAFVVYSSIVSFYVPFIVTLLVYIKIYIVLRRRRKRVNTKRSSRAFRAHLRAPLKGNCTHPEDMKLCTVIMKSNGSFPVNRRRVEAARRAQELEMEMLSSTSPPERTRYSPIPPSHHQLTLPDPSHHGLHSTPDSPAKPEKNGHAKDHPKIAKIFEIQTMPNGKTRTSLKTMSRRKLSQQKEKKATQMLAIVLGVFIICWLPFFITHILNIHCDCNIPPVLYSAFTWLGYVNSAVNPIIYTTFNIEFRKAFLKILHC

Chain of High affinity nerve growth factor receptor (P04629 33-796 limits assumed): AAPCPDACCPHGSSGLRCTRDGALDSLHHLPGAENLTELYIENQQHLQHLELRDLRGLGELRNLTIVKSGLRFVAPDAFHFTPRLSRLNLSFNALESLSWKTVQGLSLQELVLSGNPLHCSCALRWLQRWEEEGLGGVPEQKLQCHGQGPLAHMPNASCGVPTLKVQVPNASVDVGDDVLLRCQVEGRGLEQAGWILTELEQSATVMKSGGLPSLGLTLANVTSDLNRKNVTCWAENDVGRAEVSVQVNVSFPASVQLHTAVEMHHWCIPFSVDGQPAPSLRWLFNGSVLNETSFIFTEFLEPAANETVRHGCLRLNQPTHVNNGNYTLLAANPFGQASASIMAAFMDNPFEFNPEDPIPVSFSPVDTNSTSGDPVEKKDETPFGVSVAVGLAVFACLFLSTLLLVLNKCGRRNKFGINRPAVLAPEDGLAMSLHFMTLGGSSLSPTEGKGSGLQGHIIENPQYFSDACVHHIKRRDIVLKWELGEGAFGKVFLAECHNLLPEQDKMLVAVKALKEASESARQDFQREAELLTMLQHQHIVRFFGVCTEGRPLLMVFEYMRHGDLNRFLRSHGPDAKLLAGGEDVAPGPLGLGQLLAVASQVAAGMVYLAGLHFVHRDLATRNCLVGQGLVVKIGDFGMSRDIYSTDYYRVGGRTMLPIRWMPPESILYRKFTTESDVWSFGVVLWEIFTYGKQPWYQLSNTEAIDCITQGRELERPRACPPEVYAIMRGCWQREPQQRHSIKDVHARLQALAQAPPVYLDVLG
Chain of Protein kinase C theta type (Q04759 whole entry, looked up): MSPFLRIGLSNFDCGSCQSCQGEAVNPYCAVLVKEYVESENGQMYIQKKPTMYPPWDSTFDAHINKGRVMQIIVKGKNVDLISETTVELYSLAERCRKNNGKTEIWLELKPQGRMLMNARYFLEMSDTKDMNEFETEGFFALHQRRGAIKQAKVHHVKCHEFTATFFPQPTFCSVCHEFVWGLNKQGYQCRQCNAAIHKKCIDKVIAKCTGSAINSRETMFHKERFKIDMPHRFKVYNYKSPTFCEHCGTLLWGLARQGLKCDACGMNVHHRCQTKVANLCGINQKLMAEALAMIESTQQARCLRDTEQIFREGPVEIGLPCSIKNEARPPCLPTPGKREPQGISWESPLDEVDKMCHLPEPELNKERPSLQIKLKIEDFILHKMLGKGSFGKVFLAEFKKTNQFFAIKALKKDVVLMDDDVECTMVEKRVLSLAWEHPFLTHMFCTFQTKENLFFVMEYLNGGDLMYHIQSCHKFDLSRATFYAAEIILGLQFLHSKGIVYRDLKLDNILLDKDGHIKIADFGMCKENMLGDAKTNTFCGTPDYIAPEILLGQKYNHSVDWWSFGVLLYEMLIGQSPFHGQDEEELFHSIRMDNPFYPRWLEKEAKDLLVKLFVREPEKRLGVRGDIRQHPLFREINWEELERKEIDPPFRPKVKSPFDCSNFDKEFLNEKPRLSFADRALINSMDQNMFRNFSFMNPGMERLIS
Chain of RAF proto-oncogene serine/threonine-protein kinase (Homo sapiens) (P04049 whole entry): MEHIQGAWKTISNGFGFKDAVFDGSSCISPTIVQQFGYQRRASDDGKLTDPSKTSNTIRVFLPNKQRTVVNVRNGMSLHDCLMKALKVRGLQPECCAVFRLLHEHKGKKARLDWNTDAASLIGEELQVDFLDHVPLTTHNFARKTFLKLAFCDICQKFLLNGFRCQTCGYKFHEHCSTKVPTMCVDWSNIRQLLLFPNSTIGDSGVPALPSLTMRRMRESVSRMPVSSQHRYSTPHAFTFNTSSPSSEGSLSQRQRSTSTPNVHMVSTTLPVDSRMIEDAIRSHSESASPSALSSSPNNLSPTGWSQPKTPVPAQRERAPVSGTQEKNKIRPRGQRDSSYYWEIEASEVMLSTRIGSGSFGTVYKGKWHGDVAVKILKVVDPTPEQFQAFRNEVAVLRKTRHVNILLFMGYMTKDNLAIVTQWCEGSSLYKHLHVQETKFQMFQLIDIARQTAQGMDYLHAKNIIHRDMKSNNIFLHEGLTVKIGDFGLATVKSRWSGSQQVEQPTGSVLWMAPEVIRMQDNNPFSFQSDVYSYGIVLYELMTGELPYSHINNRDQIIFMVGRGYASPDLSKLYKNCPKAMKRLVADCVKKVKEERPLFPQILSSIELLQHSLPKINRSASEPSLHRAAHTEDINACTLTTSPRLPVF
Chain of Tyrosine-protein kinase ABL1 (Homo sapiens), P00519 [F317I] (P00519 whole entry F317I): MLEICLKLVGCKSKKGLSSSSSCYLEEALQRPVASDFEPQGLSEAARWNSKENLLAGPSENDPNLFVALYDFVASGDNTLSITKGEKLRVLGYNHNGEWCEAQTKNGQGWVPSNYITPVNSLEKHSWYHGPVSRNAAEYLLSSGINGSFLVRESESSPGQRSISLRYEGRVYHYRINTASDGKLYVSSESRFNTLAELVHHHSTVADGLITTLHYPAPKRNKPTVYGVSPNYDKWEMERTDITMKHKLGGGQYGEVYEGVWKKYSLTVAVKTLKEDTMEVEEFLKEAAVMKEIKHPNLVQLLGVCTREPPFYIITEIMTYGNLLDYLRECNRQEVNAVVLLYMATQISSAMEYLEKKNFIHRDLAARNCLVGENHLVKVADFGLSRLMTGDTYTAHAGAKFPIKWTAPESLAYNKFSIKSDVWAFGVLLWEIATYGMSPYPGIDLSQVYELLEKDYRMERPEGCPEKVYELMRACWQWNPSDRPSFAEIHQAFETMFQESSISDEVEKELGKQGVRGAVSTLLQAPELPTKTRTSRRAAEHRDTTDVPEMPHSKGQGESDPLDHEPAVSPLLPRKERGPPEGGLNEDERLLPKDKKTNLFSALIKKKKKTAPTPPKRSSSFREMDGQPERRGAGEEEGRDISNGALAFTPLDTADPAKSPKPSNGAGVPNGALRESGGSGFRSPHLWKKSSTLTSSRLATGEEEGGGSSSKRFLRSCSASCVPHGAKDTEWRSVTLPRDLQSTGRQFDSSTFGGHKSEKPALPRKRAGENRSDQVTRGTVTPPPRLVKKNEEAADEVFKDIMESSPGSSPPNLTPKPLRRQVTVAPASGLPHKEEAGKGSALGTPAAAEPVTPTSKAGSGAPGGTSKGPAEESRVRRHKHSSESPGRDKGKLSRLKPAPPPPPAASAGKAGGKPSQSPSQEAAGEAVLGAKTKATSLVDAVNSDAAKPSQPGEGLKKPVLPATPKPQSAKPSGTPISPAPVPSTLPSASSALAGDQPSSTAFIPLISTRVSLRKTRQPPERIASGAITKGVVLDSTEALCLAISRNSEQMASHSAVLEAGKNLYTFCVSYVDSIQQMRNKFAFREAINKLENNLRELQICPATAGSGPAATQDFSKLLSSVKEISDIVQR

Compound: COc1cc(Nc2nc(C)cc(-c3cnn4nc(OC)ccc34)n2)cc(C(F)(F)F)c1
- % of control [1]: 94%

- % of inhibition [2]: 94.3%
- % of inhibition [3]: 56.9%
Compound: CC[C@@H]1[C@H](F)C(=O)N[C@@H]1COc1nccc2cc(C(N)=O)c(OC)cc12 [ZIMLOVISERTIB]

- % of inhibition [4]: 12%
Compound: CN1Cc2nccc(-c3cn(C)nc3-c3ccc(F)cc3)c2C1=O

- % of control [5]: 100%
Compound: CCN(CC)CCCCNc1ncc2cc(-c3cc(OC)cc(OC)c3)c(NC(=O)NC(C)(C)C)nc2n1

Compound: COc1cc(N(C)c2ccnc3ccc(C(F)(F)F)cc23)cc(OC)c1OC
- % binding [6]: 63%

Compound: C=CC(=O)Nc1cc(-n2c(=O)ccc3cnc4ccc(-c5ccc(NS(C)(=O)=O)cc5)cc4c32)ccc1C
- % of control ([7]; at 1 µM): 100%
- % of control ([7]; at 10 µM): 71%

Compound: CN(C)CCOc1ccc(-c2nc(-c3ccncc3)c(-c3ccc4c(c3)CC/C4=N\O)[nH]2)cc1
- % of control [8]: 81%

Compound: N#Cc1cccc(-c2c[nH]c3ncnc(N4CCOCC4)c23)c1
- % of inhibition [9]: 8%

Compound: O[C@H]1CC[C@H](Nc2ncc3nc(Nc4c(F)cc(F)cc4F)n([C@H]4CCOC4)c3n2)CC1
- % of control [10]: 100%

Compound: COc1cc(C(=O)N2CC[C@@H](O)[C@@H](N)C2)cc2nc(-c3cc4ccccc4n3CC3CC3)n(C)c12
- pXC50 [11]: 4.6 M
